# Entries after “also recorded” stand apart in the source; their conditions may differ.
# Columns and labels:
# Lewis Lung Carcinoma = Lewis Lung Carcinoma (sc-ip), inhibition; assay type: in vivo
# B-16 melanoma = test: B16 melanoma (ip-ip), survival T/C; assay type: in vivo, mice
# Procedure: (§1) In the Table, the symbol T/C % means Treatment/Control %, that is the increase in life when the control is 100. The values are obtained by implanting tumor cells to groups of mice (or rats), administering the compound being tested in various amounts every 24 hours after the implantation of the tumor cells and then calculating the ratio, the median survival time of the group to which the compound has been administered to the survival of the control, multiplied by a factor of 100. This method is used in the screening of U.S. National Cancer Institute. […]
# (§2) In Table 7, the symbol "i.P.-i.P." means that the tumor cells are implanted intraperitoneally and the compounds being tested are also administered intraperitoneally. The symbol "TR" is the therapeutic ratio obtained by dividing the dose which provides a maximum T/C value, by the dose which provides a minimum T/C value.
# Erlich carcinoma = Erlich carcinoma (sc-ip), inhibition; assay type: in vivo
# MM2 = MM2 (ip-ip), survival T/C; assay type: in vivo, mice
# Procedure: as §1, §2
# The term in Table 7, last column "3/6 60<", means that 3 mice out of 6 mice continue to live more than 60 days after the implantation of the tumor cells.
# Yoshida sarcoma [1] = test: Yoshida sarcoma (ip-iv), survival T/C; assay type: in vivo
# Procedure: (§3) In the Table, the symbol T/C % means Treatment/Control %, that is the increase in life when the control is 100. The values are obtained by implanting tumor cells to groups of mice (or rats), administering the compound being tested in various amounts every 24 hours after the implantation of the tumor cells and then calculating the ratio, the median survival time of the group to which the compound has been administered to the survival of the control, multiplied by a factor of 100. This method is used in the screening of U.S. National Cancer Institute.
# (§4) In Table 9, "iv" and "sc" means that the administration of the compounds is carried out intravenously and the implantation of the tumor cells is carried out subcutaneously.
# P-388 cells = test: Antineoplastic action against implanted P-388 cells (ip-ip), survival T/C; assay type: in vivo, CDFl mice; conditions: for T/C: P 388 (ip-ip), × 5; for T/C % (Treatment/Control %): Table 6, P388, intraperitoneal
# Procedure: To the peritoneal cavity of each group of mice consisting of six CDFl mice per group, 10^6 /0.1 ml of P-388 cells or 10^5 /0.1 ml of L-1210 cells were implanted. […]
# In the Table, the symbol T/C % means Treatment/Control %, that is the increase in life when the control is 100. […] This method is used in the screening of U.S. National Cancer Institute.
# as §2
# Yoshida sarcoma [2] = test: Yoshida sarcoma (ip-ip), survival T/C; assay type: in vivo
# Procedure: as §3
# MOPC-104E = MOPC-104E (ip-ip), survival T/C; assay type: in vivo
# Procedure: as §3
# L-1210 cells = test: Antineoplastic action against implanted L-1210 cells (ip-ip), survival T/C; assay type: in vivo, CDFl mice
# Procedure: In this animal test, the antineoplastic action against the implanted tumor was examined in lower animals, in vivo, in respect of the compounds according to the present invention, by using CDFl mice.
# To the peritoneal cavity of each group of mice consisting of six CDFl mice per group, 10^6 /0.1 ml of P-388 cells or 10^5 /0.1 ml of L-1210 cells were implanted. […] While to the control groups of CDFl mice, P-388 and L-1210 cells were implanted in the same manner and they were bred without administration of the compounds.
# as §3, §2
# C-1498 = C-1498 (ip-ip), survival T/C; assay type: in vivo
# Procedure: as §3
# P 388 = P 388 (ip-iv), survival T/C; assay type: in vivo, mice
# Procedure: as §3, §4
# [3] = Neuropharmacological multidimentional observation (modified Arwin and Smith method); assay type: in vivo, 4-weeks CD-1 (IRC) mice; conditions: intraperitoneal, 1 to 20 mg/kg, observed every 30 minutes for 180 minutes, compared with patterns of known medicines
# Procedure: In this test, other pharmacological effects which may be obtained by these compounds were investigated.
# Each compound of the invention was intraperitoneally administered to 4-weeks CD-1 (IRC) mice (Nippon Charles Liver K.K.) in the dose of 1 to 20 mg/kg with using mice groups consisting of three mice per group. […] The observation was carried out according to the modified Arwin method and Smith method, i.e., neuropharmacological multidimentional observation method.
# Making a comparison between the symptom observed and the pattern of the pharmacological action due to the known medicines, it has been discovered that each compound of the invention has the following pharmacological effect.
# [4] = Toxicity test, lethal dose (Litchfield-Wilcoxon); assay type: in vivo, male 4-weeks CD-1 (ICR) mice; conditions: suspension in 0.5% CMC, 7 days observation
# Procedure: With respect to the compounds of this invention, the lethal dose was determined as follows.
# By using male 4-weeks CD-1 (ICR) mice consisting of 5 to 10 mice per group, the desired amount of each compound of this invention was suspended in 0.5% CMC solution and the resultant suspension was administered to each mouse intraperitoneally or intravenously. Observing the life or death as well as the general symptome during 7 days after the administration of the compounds, the value of LD50 for each compounds was estimated from the lethal population observed on the basis of the Litchfield-Wilcoxon method.
# Colon. 38 = Colon. 38 (sc-ip), inhibition; assay type: in vivo; conditions: 4 mg/kg × 11, after 17 days
# Colon 26 = Colon 26 (ip-ip), survival T/C; assay type: in vivo
# Procedure: as §3
smiles,measurement,setting,value
"CCCCCC(=O)Oc1ccc2cc1Oc1ccc(cc1)CC1C(=O)N(C)C(C2)C(=O)NC(C)C(=O)NC(C)C(=O)N(C)C(Cc2ccc(OC)cc2)C(=O)NC(C)C(=O)N1C (stereo not drawn) [Ex. 21, caproate of TPC-A]",Inhibition,"Lewis Lung Carcinoma; 0.5 mg/kg × 25, after 17 days",24.3%
same,effectiveness against B-16 melanoma,B-16 melanoma; (see Table 7),effective
same,B16 (i.P. - i.P.) T/C (%),"B-16 melanoma; Table 7, dose 0.5 mg/kg",143.5%
same,B16 (i.P. - i.P.) T/C (%),"B-16 melanoma; Table 7, dose 2 mg/kg",152.0%
same,B16 (i.P. - i.P.) T/C (%),"B-16 melanoma; Table 7, dose 5 mg/kg",165.5%
same,Inhibition,"Erlich carcinoma; 8 mg/kg × 11, after 14 days",58.5%
same,effectiveness against MM2,MM2; (see Table 7),effective
same,mice continuing to live more than 60 days after implantation (60<),"MM2; Table 7, MM2 (i.P. - i.P.), dose 2 mg/kg",2/6
same,MM2 (i.P. - i.P.) T/C (%),"MM2; Table 7, dose 0.5 mg/kg",112.1%
same,MM2 (i.P. - i.P.) T/C (%),"MM2; Table 7, dose 2 mg/kg",127.3%
same,MM2 (i.P. - i.P.) T/C (%),"MM2; Table 7, dose 10 mg/kg",93.9%
same,T/C,Yoshida sarcoma [1]; 0.83 mg/kg × 9,116.7%
same,T/C,Yoshida sarcoma [1]; 1.11 mg/kg × 9,124.8%
same,T/C,P-388 cells; in combination: Mitomycin 0.5 mg/kg + Ex 21 0.5 mg/kg,246.8%
same,T/C,P-388 cells; in combination: Mitomycin 0.5 mg/kg + Ex 21 5 mg/kg,270.3%
same,T/C % (Treatment/Control %),P-388 cells; dose 0.05 mg/kg,133.6%
same,T/C % (Treatment/Control %),P-388 cells; dose 0.5 mg/kg,143.2%
same,T/C % (Treatment/Control %),P-388 cells; dose 2 mg/kg,151.6%
same,T/C % (Treatment/Control %),P-388 cells; dose 10 mg/kg,197.2%
same,P388 (i.P. - i.P.) T/C (%),"P-388 cells; Table 7, dose 0.01 mg/kg",133.7%
same,P388 (i.P. - i.P.) T/C (%),"P-388 cells; Table 7, dose 0.1 mg/kg",135.9%
same,P388 (i.P. - i.P.) T/C (%),"P-388 cells; Table 7, dose 2 mg/kg",152.2%
same,T/C,Yoshida sarcoma [2]; 0.1 mg/kg × 5,167.0%
same,T/C,Yoshida sarcoma [2]; 0.5 mg/kg × 5,200.0%
same,T/C,Yoshida sarcoma [2]; 1 mg/kg × 5,213.3%
same,animals living more than 30 days (30<),Yoshida sarcoma [2]; 1 mg/kg × 5,2/6
same,T/C,Yoshida sarcoma [2]; 2.5 mg/kg × 5,167.0%
same,T/C,MOPC-104E; 2 mg/kg × 9 times,120.5%
same,T/C,MOPC-104E; 5 mg/kg × 9 times,136.8%
same,L1210 (i.P. - i.P.) T/C (%),"L-1210 cells; Table 7, dose 0.5 mg/kg",115.6%
same,L1210 (i.P. - i.P.) T/C (%),"L-1210 cells; Table 7, dose 2 mg/kg",126.6%
same,L1210 (i.P. - i.P.) T/C (%),"L-1210 cells; Table 7, dose 10 mg/kg",67.3%
same,T/C,C-1498; 2 mg/kg × 5 days,110.2%
same,T/C,C-1498; 8 mg/kg × 5 days,122.2%
same,T/C,P 388; 5.56 mg/kg × 9,117.2%
same,T/C,P 388; 6.94 mg/kg × 9,120.4%
COc1ccc(C[C@H]2C(=O)N[C@@H](C)C(=O)N(C)[C@H]3Cc4ccc(cc4)Oc4cc(ccc4OC)C[C@@H](C(=O)N[C@H](C)C(=O)N[C@@H](C)C(=O)N2C)N(C)C3=O)cc1 [Methylether of TPC-A],Inhibition,"Lewis Lung Carcinoma; 4 mg/kg × 11, after 17 days",51.1%
same,B16 (i.P. - i.P.) T/C (%),"B-16 melanoma; Table 7, dose 0.25 mg/kg",133.8%
same,B16 (i.P. - i.P.) T/C (%),"B-16 melanoma; Table 7, dose 1 mg/kg",135.3%
same,B16 (i.P. - i.P.) T/C (%),"B-16 melanoma; Table 7, dose 2 mg/kg",139.1%
same,B16 (i.P. - i.P.) T/C (%),"B-16 melanoma; Table 7, dose 4 mg/kg",143.0%
same,Inhibition,"Erlich carcinoma; 2 mg/kg × 11, after 14 days",60.5%
same,Pharmacological effect estinated,[3],emetic action; also recorded: anorexigenic action
same,MM2 (i.P. - i.P.) T/C (%),"MM2; Table 7, dose 0.2 mg/kg",103.1%
same,MM2 (i.P. - i.P.) T/C (%),"MM2; Table 7, dose 1 mg/kg",103.1%
same,MM2 (i.P. - i.P.) T/C (%),"MM2; Table 7, dose 2 mg/kg",118.4%
same,MM2 (i.P. - i.P.) T/C (%),"MM2; Table 7, dose 5 mg/kg",90.8%
same,LD50 and 95% Confidence Limit,[4]; intraperitoneal,10.0(7.0-14.3) mg/kg
same,LD50 and 95% Confidence Limit,[4]; intravenous,16.5(12.6-21.5) mg/kg
same,T/C % (Treatment/Control %),"P-388 cells; dose 0.01 mg/kg (printed in the 0.05 column with note ""dose, 0.01"")",130.1%
same,T/C % (Treatment/Control %),P-388 cells; dose 0.5 mg/kg,156.7%
same,T/C % (Treatment/Control %),P-388 cells; dose 2 mg/kg,164.2%
same,T/C % (Treatment/Control %),P-388 cells; dose 4 mg/kg,173.6%
same,P388 (i.P. - i.P.) T/C (%),"P-388 cells; Table 7, dose 0.01 mg/kg",130.1%
same,P388 (i.P. - i.P.) T/C (%),"P-388 cells; Table 7, dose 0.5 mg/kg",156.7%
same,P388 (i.P. - i.P.) T/C (%),"P-388 cells; Table 7, dose 1 mg/kg",159.9%
same,P388 (i.P. - i.P.) T/C (%),"P-388 cells; Table 7, dose 2 mg/kg",164.2%
same,P388 (i.P. - i.P.) T/C (%),"P-388 cells; Table 7, dose 4 mg/kg",173.6%
same,Inhibition,Colon. 38,70.1%
same,L1210 (i.P. - i.P.) T/C (%),"L-1210 cells; Table 7, dose 0.01 mg/kg",105.6%
same,L1210 (i.P. - i.P.) T/C (%),"L-1210 cells; Table 7, dose 0.5 mg/kg",118.6%
same,L1210 (i.P. - i.P.) T/C (%),"L-1210 cells; Table 7, dose 1 mg/kg",120.7%
same,L1210 (i.P. - i.P.) T/C (%),"L-1210 cells; Table 7, dose 2 mg/kg",129.3%
same,L1210 (i.P. - i.P.) T/C (%),"L-1210 cells; Table 7, dose 5 mg/kg",137.3%
same,T/C,Colon 26; 1 mg/kg × 9,113.6%
same,T/C,Colon 26; 2 mg/kg × 9,125.0%
same,T/C,Colon 26; 4 mg/kg × 9,125.9%
same,T/C,P 388; 0.56 mg/kg × 9,115.7%
same,T/C,P 388; 2.22 mg/kg × 9,160.8%

# Source: US4725578A, “Compounds having therapeutic effect and the preparation thereof” (Tobishi Pharmaceutical Co., Ltd., priority 1986, dated 1988)
